According to patent publication US20130005678A1, “Methods and Compositions for Treating or Ameliorating Cancer Using Gemcitabine-5'-Elaidate” (CLAVIS PHARMA ASA, priority 2010, published 2013):

Assays:
[1] = tested on: Murine Lewis Lung cells; settings: BDF1 mice; intravenously on Day 1
Procedure: Murine Lewis Lung cells are intravenously injected to BDF1 mice. Mean survival as well as body weight change and tumor free survivors on Day 72 are endpoints of the study. […] Treatment is administered once daily intraperitoneally on Days 1-4 and 7-11.

[2] = tested on: Co-26 murine colon cancer cells; experiment: Antitumor effect in Co-26 liver metastasis model; type: in vivo; settings: single dose
Procedure: Antitumor effect of single dose of gemcitabine-5′-elaidic acid ester or gemcitabine is tested in Balb/C female mice injected with Co-26 murine colon cancer cells in the spleen (a liver metastasis model). […] The activity of gemcitabine is similar.

[3] = tested on: human colon cancer Co5776; experiment: Antitumor activity in human colon xenograft Co5776; type: in vivo; settings: NCR female mice; intraperitoneally every third day five times; gemcitabine 120 mg/kg, gemcitabine-5′-elaidic acid ester 40 mg/kg
Procedure: (§1) Fragments of human colon cancers Co5776 and Co6044 are implanted subcutaneously in NCR female mice (7-8 mice/group). Gemcitabine (120 mg/kg) and gemcitabine-5′-elaidic acid ester (40 mg/kg) are administered intraperitoneally, every third day for five times.
NCr female mice implanted subcutaneously with human colon carcinoma fragments, Co5776, are treated intraperitoneally. Two different schedules of gemcitabine-5′-elaidic acid ester are administered, once weekly times 2 (Days 11 and 18), and every third day times 5 (Days 11, 14, 17, 20, and 23). Antitumor activity of gemcitabine-5′-elaidic acid ester is similar for 150 mg/kg once weekly, administered twice or 40 mg/kg every third day administered five times.

[4] = tested on: CEM cells; experiment: Intracellular dFdCTP level in CEM cells with or without dipyridamole (HPLC); type: cell-based, human; settings: 10 μM
Procedure: hENT1 can inhibited in vitro by various agents including dipyridamole, NBMPR, and NBI. In order to test whether gemcitabine-5′-elaidate entry into the cells is independent of a nucleoside transporter such as hENT1, dipyridamole is used to block hENT1. The intracellular level of dFdCTP is determined in CEM cells after 60 minutes exposure to either dFdC or gemcitabine-5′-elaidate, with or without the addition of dipyridamole (DP). The compounds are administered at 10 μM, and the triphosphates are determined using HPLC. Deamination is blocked using tetrahydrouridine.

[5] = tested on: CCRF-CEM human leukemia cell line; experiment: Triphosphate accumulation and retention in CCRF-CEM cells; type: cell-based
Source text: Drugs: Gemcitabine-5′-elaidate was provided by Clavis Pharma (Oslo, Norway), tetra hydro uridine (THU) was from Calbiochem (Merck, Darmstadt, Germany), dipyridamole and ara-C were from Sigma-Aldrich (St. Louis, Mo., USA) and dFdC was from Eli-Lilly (Indianapolis, Ind., USA). The radioactively labeled drugs were obtained from Moravek (Brea, Calif., USA); the drugs were labeled with tritium on the 5-C site of the base. A mix of radioactive and non-radioactive compounds was made for exposure of cells; dFdC and CP-4126 were used at a final concentration of 8.9 μM and a specific activity of 586 and 391 mCi/mmol, respectively.
Cell lines: For the experiments the CCRF-CEM human leukemia cell line and its dCK negative variant (CEM/dCK−) were used. The cell lines were cultured in RPMI medium (BioWhittaker, Verviers, Belgium) supplemented with 10% fetal calf serum (PAA laboratories, Pasching, Austria) and HEPES buffer (BioWhittaker). Of the nucleoside influx transporters, the CEM cell line only expresses the equilibrative nucleoside transporter (hENT) and not the concentrative nucleoside transporter (hCNT). Belt et al. Adv. Enzyme Regul., 1993, 33, 235-52. Dipyridamole (DP) was used to inhibit the influx of the drugs by hENT. In order to get a clean picture, THU was also added to inhibit deamination of ara-C and dFdC.
Triphosphate accumulation: Cells were treated with 1 and 10 μM of dFdC, while for the lipophilic analogs 10 and 100 μM was used. The cells were incubated for 60 minutes and retention of the triphosphates was investigated after 60 and 120 minutes incubation in drug-free medium. Dipyridamole was added to inhibit drug influx by the hENT transporter. After incubation the cell pellet was resuspended in ice-cold PBS and incubated for 20 minutes at 4° C. with 40% trichloroacetic acid. After centrifugation (10,000 g, 10 min, 4° C.) the supernatant was treated with a 2-fold excess of trioctylamine/1,1,2-trichlorotrifluorethane (1:4) and spun down (10,000 g, 1 min) and the aqueous phase was stored at −20° C. until analysis by HPLC on a Whatman Partisphere SAX column (GE healthcare, Chalfont St. Giles, UK) using gradient (dFdC-TP) elution as described earlier. Noordhuis et al., Leuk. Res., 1996, 20, 127-34; Ruiz van Haperen, et al., Biochem. Pharmacol., 1994, 48, 1327-39.

[6] = tested on: pancreatic cancer; experiment: Survival of pancreatic cancer patients receiving gemcitabine monotherapy (FIG. 8); type: in vivo, human; settings: hypothetical plot
Procedure: Patients suffering from pancreatic cancer are administered gemcitabine monotherapy. Post mortem studies of the patients' tumors determine the levels of hENT1 expression in the tumors. FIG. 8 depicts a Kaplan-Meier plot of survival for patients receiving the gemcitabine monotherapy Patients with high hENT1 expression (dotted line) outperform those with areas of hENT1-low tumor.

[7] = tested on: xenograft mouse models; experiment: Correlation of hENT1 mRNA levels and sensitivity to gemcitabine in xenograft mouse models (FIG. 6); type: in vivo; settings: higher expression level of hENT1 mRNA
Source text: FIG. 6 depicts the correlation of hENT1 mRNA levels and sensitivity to gemcitabine in xenograft mouse models. There are many nucleoside transporters and each may move nucleoside analog drugs across the membrane with unique kinetics. A cancer cell which has lower levels nucleoside transporters will be less efficient at transporting these drugs into the cells, reducing the efficacy of the drug. For example a tumor that has low levels of hENT1 is less sensitive to treatment with gemcitabine. FIG. 6 depicts the correlation of hENT1 mRNA levels and sensitivity to gemcitabine in xenograft mouse models. In some aspects low expression of hENT1 on pancreatic tumor cells linked to poor survival after gemcitabine therapy. In addition, hENT1 deficient tumor cells are resistant to pyrimidine nucleoside analogs in vitro. For example, hENT1 mRNA levels are co-related to the sensitivity to gemcitabine in xenograft mouse models.

[8] = tested on: human colon cancer Co6044; experiment: Antitumor activity in human colon xenograft Co6044 (intraperitoneal); type: in vivo; settings: NCR female mice; intraperitoneally every third day five times; gemcitabine 120 mg/kg, gemcitabine-5′-elaidic acid ester 40 mg/kg
Procedure: as §1

Compound	antitumor activity [1]	toxicity [1]	activity compared with gemcitabine [2]	antitumor effect [3]	intracellular triphosphate (dFdCTP) level with DP ([4]; 60 minutes exposure, with dipyridamole, tetrahydrouridine present)	level of triphosphate over time in the absence of DP ([4]; after exposure, without dipyridamole)	retention of dFdC-TP concentration after washing away the drugs ([5]; 60 and 120 minutes in drug-free medium)	triphosphates formed after 60 minutes incubation ([5]; dFdC 1 and 10 μM, lipophilic analog 10 and 100 μM)	effect of dipyridamole on dFdC-TP accumulation ([5]; hENT inhibited by dipyridamole)	survival (Kaplan-Meier), high hENT1 vs hENT1-low tumor [6]	response in relation to hENT1 mRNA expression level [7]	antitumor effect [8]
O=P1(N(CCCl)CCCl)NCCCO1 (stereo not drawn) [CTX, Cyclophosphamide]	highly active	non-toxic	–	–	–	–	–	–	–	–	–	–
Nc1ccn([C@@H]2O[C@H](CO)[C@@H](O)C2(F)F)c(=O)n1 [gemcitabine, 2′2′-difluorodeoxycytidine]	–	–	similar	Significant antitumor effect	below level of detection	decreases with time	decreased after washing away the drugs	more triphosphates were formed	abolishing accumulation of dFdC-TP	outperform	better response	Significant antitumor effect
